The values that follow come from patent EP0035412A1, “Amidotetrazole compounds and processes for their preparation” (GLAXO GROUP LIMITED, priority 1980, dated 1981).

Holding throughout (format): in vivo
For data set [1], the system named is rats with adjuvant arthritis. Description: Freund adjuvant arthritis test (anti-inflammatory activity). The conditions noted are these: arthritic score versus first score, suspended in gum acacia. The method, then:
The anti-inflammatory activity was determined by the Freund adjuvant arthritis test (Pearson, C.M. Proc. Soc. Exp. Biol. Med 91, 95 1956) and analgesic activity was determined by applying an increasing pressure to the inflamed paw (Randall, L.O. Selitto, J.J., Arch. Int. Pharmacodyn, 111, 409 1957) and recording pain threshold.
The anti-inflammatory activity of the compounds was determined in rats with adjuvant arthritis (Pearson, C.M. Prod. Soc. Exp. Biol. Med., 91, 95, 1956) induced by intradermal,injection into the tail of 0.1 ml of a fine suspension of Mycobacterium butyricum in liquid paraffin (6 mg.ml^-1).
After 14 days, animals were chosen on the basis of their arthritic score and test compounds, suspended in gum acacia, were then orally administered once a day for 14 days. At the end of this period, animals were scored again and percentage inhibition versus first score was calculated. Comparisons with controls were performed by the Dunnett test. The following results were obtained for the compounds of the Examples: […]

A short description of another data set: Toxicity (oral LD50). The conditions noted are these: in vivo, po; rat, orally. The method, then: (§1) The compounds are in general non-toxic at therapeutically active doses. For example, the compound of Example 1 has an LD50 value in the rat in excess of 3000 mg.kg ^-1 orally.
In another data set the test system is rat. As to the kind of experiment: Toxicity (oral LD50). The conditions noted are these: result in words. The method, then:
as §1

The mark [2] stands for this setting: oral dose 50.0 mg.kg^-1 once a day for 14 days.

Bounds are passed on as bounds.

As usually defined, the % Inhibition is the percentage by which the read-out fell short of the control. As for `COc1ccc2c(c1)c(CC(=O)Nc1nnnn1-c1ccc(N)cc1)c(C)n2C(=O)c1ccc(Cl)cc1` [Example 4], in data set [1] (setting [2]), the “% Inhibition” value worked out at 44.8%. On to `COc1ccc2c(c1)c(CC(=O)Nc1nnnn1-c1ccc(Cl)c(Cl)c1)c(C)n2C(=O)c1ccc(Cl)cc1` [Example 2, 1-(3,4-Dichlorophenyl)-5-[1-(4-chlorobenzoyl)-5-methoxy-2-methylindol-3-ylacetamido]tetrazole], for which the “% Inhibition” value in data set [1] (setting [2]) is listed as 40.3%. The term LD50 denotes the dose at which mortality reaches 50%. Low readings indicate greater toxicity, high ones lower toxicity. Turning to `COc1ccc2c(c1)c(CC(=O)Nc1nnnn1-c1ccccc1)c(C)n2C(=O)c1ccc(Cl)cc1` [Example 1, 1-Phenyl-5-[1-(4-chlorobenzoyl)-5-methoxy-2-methylindol-3-ylacetamido]tetrazole], the “% Inhibition” value in data set [1] (oral dose 6.25 mg.kg^-1 once a day for 14 days) worked out at 59%. Moreover, the LD50 in the data set “Toxicity (oral LD50)” is greater than 3000 mg/kg. For the same compound, the therapeutic index result in the data set with rat was “particularly advantageous”. In the case of `COc1ccc2c(c1)c(CC(=O)Nc1nnnn1-c1ccc([N+](=O)[O-])cc1)c(C)n2C(=O)c1ccc(Cl)cc1` [Example 3, 1-(4-Nitrophenyl)-5-[1-(4-chlorobenzoyl)-5-methoxy-2-methylindol-3-ylacetamido] tetrazole], in data set [1] (oral dose 10.0 mg.kg^-1 once a day for 14 days), the “% Inhibition” value is listed as 47.7%.
